# Test results: patent US12410355B2, “Compositions and methods for carbon dioxide solidification” (CHEVRON U.S.A. INC., priority 2022, dated 2025)
# What was measured:
# [1] = GBIG·(HCO3)2(H2O)2(s) precipitation upon contacting with CO2(g); format: physicochemical; details: CO2 gas 0.5 psig, 30 minutes
# Description: GBIG·(HCO3)2(H2O)2(s) Precipitation Upon Contacting with CO2(g)
# Pour approximately 5 ml of the synthesized chemical solution into the polycarbonate reservoir. Open the CO2 gas cylinder valve and take note of the pressure. Open the delivery valve of the regulator. Increase the delivery pressure to 0.5 psig by turning the regulator knob. Open the 3-way valve connected to the bottom of the polycarbonate reservoir to initiate CO2 gas flow into the reservoir. Watch for precipitation in the liquid through the transparent polycarbonate reservoir wall for 30 minutes. For temperature dependence testing: Samples were placed in ovens at temperature of interest for 30 minutes, then used in the procedure detailed above.
# Results for the precipitation test for varying salinity and glyoxal-bis(iminoguanidine) (GBIG) concentration are shown in Tables 2-4 and FIGS. 3A-3C. Table 2 and FIG. 3A show results for 1 wt % NaCl and 0.397 wt % GBIG. Table 3 and FIG. 3B show results for 0.1 wt % NaCl and 0.243 wt % GBIG. Table 4 and FIG. 3C show results for 20 wt % NaCl and 0.064 wt % GBIG.
# [2] = Solubility limit (Ksp) of GBIG in NaCl brine; format: physicochemical; details: 25° C., 20 minutes of sonication
# Description: Solubility limit Ksp at 25° C. and 20 minutes of sonication. Solubility limit strongly depends on salinity: nonlinear dependence.
smiles,measurement,setting,value
"N=C(N)NN=CC=NNC(=N)N [GBIG, glyoxal-bis(iminoguanidine)]",Precipitation?,"[1]; 0.1 wt % NaCl and 0.243 wt % GBIG, 25° C.",Yes
same,Precipitation?,"[1]; 0.1 wt % NaCl and 0.243 wt % GBIG, 65° C.",Yes
same,Precipitation?,"[1]; 0.1 wt % NaCl and 0.243 wt % GBIG, 80° C.",Yes
same,Precipitation?,"[1]; 0.1 wt % NaCl and 0.243 wt % GBIG, 100° C.",Yes
same,Precipitation?,"[1]; 0.1 wt % NaCl and 0.243 wt % GBIG, 115° C.",Yes
same,Precipitation?,"[1]; 1 wt % NaCl and 0.397 wt % GBIG, 25° C.",Yes
same,Precipitation?,"[1]; 1 wt % NaCl and 0.397 wt % GBIG, 65° C.",Yes
same,Precipitation?,"[1]; 1 wt % NaCl and 0.397 wt % GBIG, 80° C.",Yes
same,Precipitation?,"[1]; 1 wt % NaCl and 0.397 wt % GBIG, 100° C.",Yes
same,Precipitation?,"[1]; 1 wt % NaCl and 0.397 wt % GBIG, 115° C.",Yes
same,Precipitation?,"[1]; 20 wt % NaCl and 0.064 wt % GBIG, 25° C.",Yes
same,Precipitation?,"[1]; 20 wt % NaCl and 0.064 wt % GBIG, 65° C.",Yes
same,Precipitation?,"[1]; 20 wt % NaCl and 0.064 wt % GBIG, 80° C.",Yes
same,Precipitation?,"[1]; 20 wt % NaCl and 0.064 wt % GBIG, 100° C.",Yes
same,Precipitation?,"[1]; 20 wt % NaCl and 0.064 wt % GBIG, 115° C.",Yes
same,GBIG Ksp,[2]; 0.1 wt % NaCl,0.0143
same,"Solubility limit, GBIG (wt %)",[2]; 0.1 wt % NaCl,0.243 wt %
same,GBIG Ksp,[2]; 1 wt % NaCl,0.0234
same,"Solubility limit, GBIG (wt %)",[2]; 1 wt % NaCl,0.397 wt %
same,GBIG Ksp,[2]; 20 wt % NaCl,0.0038
same,"Solubility limit, GBIG (wt %)",[2]; 20 wt % NaCl,0.064 wt %
